Earlier results in patent US11771784B2, “Material, device, and method for deactivating pathogen in aerosol, and methods for manufacturing thereof” (priority 2016, dated 2023).

Conditions: in water

Compound | maximum solubility limit
[Cl-].[K+] [potassium chloride] | about 355 g/l
(sodium/potassium) tartrates | about 660 g/l
